Laboratory results published in patent US12629364B2, “Methods of treating cancers overexpressing CARM1 with EZH2 inhibitors and platinum-based antineoplastic drugs” (The Wistar Institute of Anatomy and Biology, priority 2016, dated 2026).

Experiments:
CARM1-expressing tumors = assay: IHC and qRT-PCR of dissected CARM1-expressing tumors; format: in vivo, NSG mice; details: IHC
Method: FIG. 79 illustrates immunohistochemical analysis for serial sections of tumors dissected from the indicated treatment groups where the tumor sections were stained for H3K27Me3, EZH2, cleaved caspase 3, and Ki67. Scale bar=50 μm.
FIG. 80 illustrates histological scoring (H-score) of the indicated proteins that was calculated for 3 separate fields from 5 tumors from 5 individual mice from each of the indicated groups.
FIG. 81 illustrates the expression of the indicated EZH2/BAF155 target genes that was determined by qRT-PCR in the tumors dissected from the indicated treatment groups.

[1] = system: CARM1-expressing cell lines (A1847, OVCAR10, and PEO4); assay: Colony formation assay / GSK126 response curves, CARM1-expressing ovarian cancer cell lines; format: cell-based, Human
From the text: FIG. 5 illustrates the results of a colony formation assay with a panel of normal and ovarian cancer cell lines in the presence of GSK126.
FIG. 7 illustrates GSK 126 response curves in a panel of normal and ovarian cancer cell lines. Error bars indicate standard error (S.E.) for n=3. *, p≤0.05.
FIG. 8 illustrates IC50 results for the panel of normal and ovarian cancer cell lines.
FIG. 33 illustrates relative growth of the indicated HOSE, FTE, and EOC cancer cell lines with high or low CARM1 expression treated with 10 μM GSK126 or vehicle in a colony formation assay as determined by NIH Image J quantification.
500 to 5,000 cell were plated into a 24 well tissue culture plate and treated with the indicated compounds. Medium was changed every three days with appropriate drug doses for 12 days or until control wells became confluent. Colonies were washed twice with PBS and fixed with 10% methanol and 10% acetic acid in distilled water. Fixed colonies were stained with 0.005% crystal violet. Integrated density was measured using NIH ImageJ software.

CC[C@H](C)n1cc(C)c2c(C(=O)NCc3c(C)cc(C)[nH]c3=O)cc(-c3ccc(N4CCNCC4)nc3)cc21 [GSK126, (S)-1-(sec-butyl)-N-((4,6-dimethyl-2-oxo-1,2-dihydropyridin-3-yl)methyl)-3-methyl-6-(6-(piperazin-1-yl)pyridin-3-yl)-1H-indole-4-carboxamide]
H3K27Me3 staining (CARM1-expressing tumors): H3K27Me3 staining was decreased
relation of CARM1 expression level and cellular response ([1]; 10 μM, panel of EOC cell lines): correlation between CARM1 expression levels and cellular response
IC50 values from response curves ([1]; CARM1-expressing cell lines (A1847, OVCAR10, PEO4) versus panel of normal and ovarian cancer cell lines, values only in FIG. 8): Significantly reduced IC50 values
